Results published in publication PMC9285882, “A mass spectrometry‐based non‐radioactive differential radial capillary action of ligand assay (DRaCALA) to assess ligand binding to proteins” (Journal of Mass Spectrometry, 2022).

What was measured:
Assay type in all cases: biochemical
YcgR = molecular target: T1, YcgR (Escherichia coli, UniProt P76010); assay: DRaCALA, MALDI-TOF MS read-out; conditions: cell lysate; 10 mM Tris pH 8.0, 100 mM NaCl, 5 mM MgCl2; room temperature
T1 construct: cloned in pBAD30, expressed in E. coli Top10, whole cell lysate
T1 sequence (P76010 1-244): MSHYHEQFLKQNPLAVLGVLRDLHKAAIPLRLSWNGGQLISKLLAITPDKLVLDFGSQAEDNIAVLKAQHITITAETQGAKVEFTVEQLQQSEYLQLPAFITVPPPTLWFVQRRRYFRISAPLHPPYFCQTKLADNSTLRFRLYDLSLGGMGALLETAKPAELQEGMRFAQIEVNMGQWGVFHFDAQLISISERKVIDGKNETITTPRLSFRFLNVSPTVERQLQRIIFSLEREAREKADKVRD

YciRFec101 = molecular target: T2, YciRFec101 (Escherichia coli, UniProt P77334); assay: DRaCALA, MALDI-TOF MS and […] read-out; conditions: cell lysate; 10 mM Tris pH 8.0, 100 mM NaCl, 5 mM MgCl2 (MALDI) or MgSO4 (32P); room temperature; labelled compound in 32P assay
T2 construct: gene pdeR; full-length GGDEF/EAL protein, cloned in pBAD30, expressed in E. coli Top10, whole cell lysate

BcsE = BcsE (Escherichia coli, UniProt P37657); assay: DRaCALA, MALDI-TOF MS read-out; conditions: cell lysate; 10 mM Tris pH 8.0, 100 mM NaCl, 5 mM MgCl2; room temperature
BcsE, sequence (P37657 whole entry): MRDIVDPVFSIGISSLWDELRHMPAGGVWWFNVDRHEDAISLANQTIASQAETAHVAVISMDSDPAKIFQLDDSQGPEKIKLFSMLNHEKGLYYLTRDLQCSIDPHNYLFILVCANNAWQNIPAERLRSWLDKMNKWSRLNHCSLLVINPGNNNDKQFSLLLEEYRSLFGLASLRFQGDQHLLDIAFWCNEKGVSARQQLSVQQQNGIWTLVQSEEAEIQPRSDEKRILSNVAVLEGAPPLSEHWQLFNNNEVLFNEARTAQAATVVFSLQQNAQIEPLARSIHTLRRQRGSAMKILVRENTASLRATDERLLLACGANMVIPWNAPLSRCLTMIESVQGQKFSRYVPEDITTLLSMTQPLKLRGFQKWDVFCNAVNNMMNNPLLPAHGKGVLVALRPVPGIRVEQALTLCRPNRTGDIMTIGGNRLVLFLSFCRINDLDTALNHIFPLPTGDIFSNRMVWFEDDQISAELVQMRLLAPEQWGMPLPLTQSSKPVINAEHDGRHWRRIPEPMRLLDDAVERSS

T2 sequence (P77334 whole entry): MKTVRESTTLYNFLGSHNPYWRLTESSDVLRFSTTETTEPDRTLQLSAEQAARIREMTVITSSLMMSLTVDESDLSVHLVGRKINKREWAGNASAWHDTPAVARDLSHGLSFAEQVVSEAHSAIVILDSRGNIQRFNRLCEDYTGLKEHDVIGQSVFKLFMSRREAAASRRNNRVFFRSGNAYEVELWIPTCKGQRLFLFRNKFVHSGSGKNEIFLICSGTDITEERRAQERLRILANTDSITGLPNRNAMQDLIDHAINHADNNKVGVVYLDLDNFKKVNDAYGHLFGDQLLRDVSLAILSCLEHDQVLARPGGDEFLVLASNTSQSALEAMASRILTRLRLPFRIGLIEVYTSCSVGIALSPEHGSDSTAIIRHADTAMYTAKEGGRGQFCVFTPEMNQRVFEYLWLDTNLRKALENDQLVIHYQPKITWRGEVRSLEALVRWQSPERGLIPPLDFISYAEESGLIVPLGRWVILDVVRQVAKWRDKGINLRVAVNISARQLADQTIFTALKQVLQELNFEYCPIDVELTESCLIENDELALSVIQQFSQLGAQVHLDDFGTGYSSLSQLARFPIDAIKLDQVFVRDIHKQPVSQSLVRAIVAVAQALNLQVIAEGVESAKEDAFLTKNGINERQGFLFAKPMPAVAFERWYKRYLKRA

Nc1nc2c(ncn2[C@@H]2O[C@@H]3COP(=O)(O)O[C@H]4[C@@H](O)[C@H](n5cnc6c(=O)[nH]c(N)nc65)O[C@@H]4COP(=O)(O)O[C@H]3[C@H]2O)c(=O)[nH]1 [cyclic di-GMP]
DRaCALA, MALDI-TOF MS read-out (YcgR): cell lysates expressing the cyclic di‐GMP receptors and incubated with cyclic di‐GMP showed higher counts | DRaCALA, MALDI-TOF MS and 32P read-out (YciRFec101): YciRFec101 showed increased binding to c‐di‐GMP, while mut1 and mut2 were near vector control | DRaCALA, MALDI-TOF MS read-out (BcsE): cell lysates expressing the cyclic di‐GMP receptors and incubated with cyclic di‐GMP showed higher counts
